Measured values published in ChEMBL document CHEMBL1154057, “Synthesis and antibacterial activity of novel 15-membered macrolide derivatives: 4''-carbamate, 11,12-cyclic carbonate-4''-carbamate and 11,4''-di-O-arylcarbamoyl analogs of azithromycin” (2009).
≈ marks a conversion by molar mass, not a printed value.

What was measured:
Streptococcus pneumoniae [1] = assay: Antibacterial activity against erythromycin-susceptible Streptococcus pneumoniae ATCC 49619
Streptococcus pneumoniae [2] = assay: Antibacterial activity against erythromycin-resistant Streptococcus pneumoniae A22072 encoded by mef gene
Streptococcus pneumoniae [3] = assay: Antibacterial activity against erythromycin-resistant Streptococcus pneumoniae AB11 encoded by erm and mef gene
Streptococcus pneumoniae [4] = assay: Antibacterial activity against erythromycin-resistant Streptococcus pneumoniae B1 encoded by erm gene

Compound	MIC (Streptococcus pneumoniae [1])	MIC (Streptococcus pneumoniae [2])	MIC (Streptococcus pneumoniae [3])	MIC (Streptococcus pneumoniae [4])
CC[C@H]1OC(=O)[C@H](C)[C@@H](O[C@H]2C[C@@](C)(OC)[C@@H](O)[C@H](C)O2)[C@H](C)[C@@H](O[C@@H]2O[C@H](C)C[C@H](N(C)C)[C@H]2O)[C@](C)(OC)C[C@@H](C)C(=O)[C@H](C)[C@@H](O)[C@]1(C)O [CLARITHROMYCIN]	< 0.03 µg/mL	4 µg/mL (≈ 5.35 µM)	128 µg/mL (≈ 171 µM)	64 µg/mL (≈ 85.6 µM)
CC[C@H]1OC(=O)[C@H](C)[C@@H](O[C@H]2C[C@@](C)(OC)[C@@H](OC(=O)NCc3ccc(F)cc3)[C@H](C)O2)[C@H](C)[C@@H](O[C@@H]2O[C@H](C)C[C@H](N(C)C)[C@H]2O)[C@@](C)(O)C[C@@H](C)CN(C)[C@H](C)[C@H]2OC(=O)O[C@@]21C	0.06 µg/mL (≈ 0.0648 µM)	0.06 µg/mL (≈ 0.0648 µM)	4 µg/mL (≈ 4.32 µM)	8 µg/mL (≈ 8.64 µM)
CC[C@H]1OC(=O)[C@H](C)[C@@H](O[C@H]2C[C@@](C)(OC)[C@@H](OC(=O)NCCc3ccccc3Cl)[C@H](C)O2)[C@H](C)[C@@H](O[C@@H]2O[C@H](C)C[C@H](N(C)C)[C@H]2O)[C@@](C)(O)C[C@@H](C)CN(C)[C@H](C)[C@@H](OC(=O)NCc2ccc(F)cc2)[C@]1(C)O	0.06 µg/mL (≈ 0.0555 µM)	0.25 µg/mL (≈ 0.231 µM)	4 µg/mL (≈ 3.7 µM)	0.25 µg/mL (≈ 0.231 µM)
CC[C@H]1OC(=O)[C@H](C)[C@@H](O[C@H]2C[C@@](C)(OC)[C@@H](OC(=O)NC(C)C)[C@H](C)O2)[C@H](C)[C@@H](O[C@@H]2O[C@H](C)C[C@H](N(C)C)[C@H]2O)[C@@](C)(O)C[C@@H](C)CN(C)[C@H](C)[C@H]2OC(=O)O[C@@]21C	0.12 µg/mL (≈ 0.14 µM)	8 µg/mL (≈ 9.3 µM)	128 µg/mL (≈ 149 µM)	16 µg/mL (≈ 18.6 µM)
CCCNC(=O)O[C@H]1[C@H](C)O[C@@H](O[C@H]2[C@H](C)[C@@H](O[C@@H]3O[C@H](C)C[C@H](N(C)C)[C@H]3O)[C@@](C)(O)C[C@@H](C)CN(C)[C@H](C)[C@H]3OC(=O)O[C@]3(C)[C@@H](CC)OC(=O)[C@@H]2C)C[C@@]1(C)OC	0.06 µg/mL (≈ 0.0698 µM)	0.12 µg/mL (≈ 0.14 µM)	16 µg/mL (≈ 18.6 µM)	16 µg/mL (≈ 18.6 µM)
CC[C@H]1OC(=O)[C@H](C)[C@@H](O[C@H]2C[C@@](C)(OC)[C@@H](OC(=O)NCc3ccc(F)cc3)[C@H](C)O2)[C@H](C)[C@@H](O[C@@H]2O[C@H](C)C[C@H](N(C)C)[C@H]2O)[C@@](C)(O)C[C@@H](C)CN(C)[C@H](C)[C@@H](O)[C@]1(C)O	< 0.03 µg/mL	0.25 µg/mL (≈ 0.278 µM)	16 µg/mL (≈ 17.8 µM)	4 µg/mL (≈ 4.44 µM)
CC[C@H]1OC(=O)[C@H](C)[C@@H](O[C@H]2C[C@@](C)(OC)[C@@H](OC(=O)NC3CCCCC3)[C@H](C)O2)[C@H](C)[C@@H](O[C@@H]2O[C@H](C)C[C@H](N(C)C)[C@H]2O)[C@@](C)(O)C[C@@H](C)CN(C)[C@H](C)[C@H]2OC(=O)O[C@@]21C	0.06 µg/mL (≈ 0.0667 µM)	2 µg/mL (≈ 2.22 µM)	32 µg/mL (≈ 35.5 µM)	16 µg/mL (≈ 17.8 µM)
CCCCNC(=O)O[C@H]1[C@H](C)O[C@@H](O[C@H]2[C@H](C)[C@@H](O[C@@H]3O[C@H](C)C[C@H](N(C)C)[C@H]3O)[C@@](C)(O)C[C@@H](C)CN(C)[C@H](C)[C@H]3OC(=O)O[C@]3(C)[C@@H](CC)OC(=O)[C@@H]2C)C[C@@]1(C)OC	0.12 µg/mL (≈ 0.137 µM)	1 µg/mL (≈ 1.14 µM)	16 µg/mL (≈ 18.3 µM)	8 µg/mL (≈ 9.15 µM)
CC[C@H]1OC(=O)[C@H](C)[C@@H](O[C@H]2C[C@@](C)(OC)[C@@H](OC(=O)NCc3ccc(F)cc3)[C@H](C)O2)[C@H](C)[C@@H](O[C@@H]2O[C@H](C)C[C@H](N(C)C)[C@H]2O)[C@@](C)(O)C[C@@H](C)CN(C)[C@H](C)[C@@H](OC(=O)NCCc2ccccc2Cl)[C@]1(C)O	< 0.03 µg/mL	0.12 µg/mL (≈ 0.111 µM)	2 µg/mL (≈ 1.85 µM)	0.25 µg/mL (≈ 0.231 µM)
CCCCNC(=O)O[C@@H]1[C@@H](C)N(C)C[C@H](C)C[C@](C)(O)[C@H](O[C@@H]2O[C@H](C)C[C@H](N(C)C)[C@H]2O)[C@@H](C)[C@H](O[C@H]2C[C@@](C)(OC)[C@@H](OC(=O)NCc3ccc(OC)cc3)[C@H](C)O2)[C@@H](C)C(=O)O[C@H](CC)[C@@]1(C)O	0.06 µg/mL (≈ 0.0593 µM)	1 µg/mL (≈ 0.989 µM)	128 µg/mL (≈ 127 µM)	0.5 µg/mL (≈ 0.494 µM)
CC[C@H]1OC(=O)[C@H](C)[C@@H](O[C@H]2C[C@@](C)(OC)[C@@H](OC(=O)NCCc3ccccc3)[C@H](C)O2)[C@H](C)[C@@H](O[C@@H]2O[C@H](C)C[C@H](N(C)C)[C@H]2O)[C@@](C)(O)C[C@@H](C)CN(C)[C@H](C)[C@@H](O)[C@]1(C)O	0.06 µg/mL (≈ 0.067 µM)	1 µg/mL (≈ 1.12 µM)	32 µg/mL (≈ 35.7 µM)	8 µg/mL (≈ 8.93 µM)
C=CCNC(=O)O[C@H]1[C@H](C)O[C@@H](O[C@H]2[C@H](C)[C@@H](O[C@@H]3O[C@H](C)C[C@H](N(C)C)[C@H]3O)[C@@](C)(O)C[C@@H](C)CN(C)[C@H](C)[C@@H](O)[C@](C)(O)[C@@H](CC)OC(=O)[C@@H]2C)C[C@@]1(C)OC	< 0.03 µg/mL	1 µg/mL (≈ 1.2 µM)	32 µg/mL (≈ 38.5 µM)	16 µg/mL (≈ 19.2 µM)
CC[C@H]1OC(=O)[C@H](C)[C@@H](O[C@H]2C[C@@](C)(OC)[C@@H](OC(=O)NCc3ccccc3)[C@H](C)O2)[C@H](C)[C@@H](O[C@@H]2O[C@H](C)C[C@H](N(C)C)[C@H]2O)[C@@](C)(O)C[C@@H](C)CN(C)[C@H](C)[C@@H](O)[C@]1(C)O	< 0.03 µg/mL	0.06 µg/mL (≈ 0.068 µM)	64 µg/mL (≈ 72.6 µM)	16 µg/mL (≈ 18.1 µM)
CC[C@H]1OC(=O)[C@H](C)[C@@H](O[C@H]2C[C@@](C)(OC)[C@@H](O)[C@H](C)O2)[C@H](C)[C@@H](O[C@@H]2O[C@H](C)C[C@H](N(C)C)[C@H]2O)[C@](C)(O)C[C@@H](C)CN(C)[C@H](C)[C@@H](O)[C@]1(C)O [AZITHROMYCIN]	< 0.03 µg/mL	4 µg/mL (≈ 5.34 µM)	256 µg/mL (≈ 342 µM)	128 µg/mL (≈ 171 µM)
CC[C@H]1OC(=O)[C@H](C)[C@@H](O[C@H]2C[C@@](C)(OC)[C@@H](OC(=O)NC(C)C)[C@H](C)O2)[C@H](C)[C@@H](O[C@@H]2O[C@H](C)C[C@H](N(C)C)[C@H]2O)[C@@](C)(O)C[C@@H](C)CN(C)[C@H](C)[C@@H](O)[C@]1(C)O	0.12 µg/mL (≈ 0.144 µM)	8 µg/mL (≈ 9.59 µM)	256 µg/mL (≈ 307 µM)	128 µg/mL (≈ 153 µM)
CC[C@H]1OC(=O)[C@H](C)[C@@H](O[C@H]2C[C@@](C)(OC)[C@@H](OC(=O)NCCc3ccc(O)cc3)[C@H](C)O2)[C@H](C)[C@@H](O[C@@H]2O[C@H](C)C[C@H](N(C)C)[C@H]2O)[C@@](C)(O)C[C@@H](C)CN(C)[C@H](C)[C@@H](OC(=O)NCCc2ccccc2Cl)[C@]1(C)O	< 0.03 µg/mL	0.25 µg/mL (≈ 0.229 µM)	16 µg/mL (≈ 14.6 µM)	0.25 µg/mL (≈ 0.229 µM)
CC[C@H]1OC(=O)[C@H](C)[C@@H](O[C@H]2C[C@@](C)(OC)[C@@H](OC(=O)NCCc3ccc(O)cc3)[C@H](C)O2)[C@H](C)[C@@H](O[C@@H]2O[C@H](C)C[C@H](N(C)C)[C@H]2O)[C@@](C)(O)C[C@@H](C)CN(C)[C@H](C)[C@@H](O)[C@]1(C)O	< 0.03 µg/mL	0.5 µg/mL (≈ 0.548 µM)	2 µg/mL (≈ 2.19 µM)	4 µg/mL (≈ 4.39 µM)
CCCCCNC(=O)O[C@H]1[C@H](C)O[C@@H](O[C@H]2[C@H](C)[C@@H](O[C@@H]3O[C@H](C)C[C@H](N(C)C)[C@H]3O)[C@@](C)(O)C[C@@H](C)CN(C)[C@H](C)[C@H]3OC(=O)O[C@]3(C)[C@@H](CC)OC(=O)[C@@H]2C)C[C@@]1(C)OC	0.06 µg/mL (≈ 0.0676 µM)	8 µg/mL (≈ 9.01 µM)	16 µg/mL (≈ 18 µM)	16 µg/mL (≈ 18 µM)
CCCCNC(=O)O[C@@H]1[C@@H](C)N(C)C[C@H](C)C[C@](C)(O)[C@H](O[C@@H]2O[C@H](C)C[C@H](N(C)C)[C@H]2O)[C@@H](C)[C@H](O[C@H]2C[C@@](C)(OC)[C@@H](OC(=O)NCCc3ccc(O)cc3)[C@H](C)O2)[C@@H](C)C(=O)O[C@H](CC)[C@@]1(C)O	< 0.03 µg/mL	1 µg/mL (≈ 0.989 µM)	128 µg/mL (≈ 127 µM)	0.25 µg/mL (≈ 0.247 µM)
CC[C@H]1OC(=O)[C@H](C)[C@@H](O[C@H]2C[C@@](C)(OC)[C@@H](OC(=O)NCc3ccccc3)[C@H](C)O2)[C@H](C)[C@@H](O[C@@H]2O[C@H](C)C[C@H](N(C)C)[C@H]2O)[C@@](C)(O)C[C@@H](C)CN(C)[C@H](C)[C@H]2OC(=O)O[C@@]21C	< 0.03 µg/mL	0.12 µg/mL (≈ 0.132 µM)	8 µg/mL (≈ 8.81 µM)	8 µg/mL (≈ 8.81 µM)
CC[C@H]1OC(=O)[C@H](C)[C@@H](O[C@H]2C[C@@](C)(OC)[C@@H](OC(=O)NCCc3ccccc3Cl)[C@H](C)O2)[C@H](C)[C@@H](O[C@@H]2O[C@H](C)C[C@H](N(C)C)[C@H]2O)[C@@](C)(O)C[C@@H](C)CN(C)[C@H](C)[C@H]2OC(=O)O[C@@]21C	0.06 µg/mL (≈ 0.0627 µM)	0.25 µg/mL (≈ 0.261 µM)	2 µg/mL (≈ 2.09 µM)	8 µg/mL (≈ 8.36 µM)
CC[C@H]1OC(=O)[C@H](C)[C@@H](O[C@H]2C[C@@](C)(OC)[C@@H](OC(=O)NCCc3ccccc3Cl)[C@H](C)O2)[C@H](C)[C@@H](O[C@@H]2O[C@H](C)C[C@H](N(C)C)[C@H]2O)[C@@](C)(O)C[C@@H](C)CN(C)[C@H](C)[C@@H](OC(=O)NCc2ccccc2)[C@]1(C)O	< 0.03 µg/mL	0.25 µg/mL (≈ 0.235 µM)	4 µg/mL (≈ 3.76 µM)	0.25 µg/mL (≈ 0.235 µM)
